Measurements published in ChEMBL document CHEMBL1201862, “PubChem BioAssay data set” (2004).
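Five concentrations, 48 hours, 96-well plates. Here, GI50 denotes the concentration required for 50% inhibition of growth.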 Active and inactive are the calls of the source. Rule as the data show it: active = GI50 up to about 1.1 µM and inactive = higher.

Tests used:
Experiment in all cases: NCI tumour cell line growth inhibition, 48 h
SK-MEL-5 = tested on: SK-MEL-5
OVCAR-3 = tested on: OVCAR-3
SW-620 = tested on: SW-620
SN12C = tested on: SN12C
ACHN = tested on: ACHN
M14 = tested on: M14
SF-539 = tested on: SF-539
UACC-62 = tested on: UACC-62
MDA-MB-231 = tested on: MDA-MB-231
SK-MEL-28 = tested on: SK-MEL-28
COLO 205 = tested on: COLO 205
A549 = tested on: A549
EKVX = tested on: EKVX
MDA-N = tested on: MDA-N
IGROV-1 = tested on: IGROV-1
HCC 2998 = tested on: HCC 2998
RPMI-8226 = tested on: RPMI-8226
SNB-75 = tested on: SNB-75
RXF 393 = tested on: RXF 393
MCF7 = tested on: MCF7

Measured: GI50

CC1C(=O)OCC2=CCN3CCC(OC(=O)C(C)C1(C)O)C23 (stereo not given)
inactive: SK-MEL-5 > 100 µM | OVCAR-3 > 100 µM | SW-620 > 100 µM | SN12C > 100 µM | ACHN > 100 µM | M14 > 100 µM | SF-539 > 100 µM | UACC-62 > 100 µM | MDA-MB-231 > 100 µM | SK-MEL-28 > 100 µM | COLO 205 > 100 µM | A549 > 100 µM | EKVX > 100 µM | MDA-N > 100 µM | IGROV-1 > 100 µM | HCC 2998 > 100 µM | RPMI-8226 > 100 µM | SNB-75 > 100 µM

CNC(Cc1ccccc1)c1cccc(OC)c1O (stereo not given)
inactive: SK-MEL-5 > 100 µM | RXF 393 > 100 µM | OVCAR-3 60.5 µM | SW-620 > 100 µM | SN12C > 100 µM | ACHN > 100 µM | M14 > 100 µM | UACC-62 > 100 µM | MDA-MB-231 > 100 µM | SK-MEL-28 > 100 µM | A549 > 100 µM | EKVX 92.9 µM | MDA-N 99.3 µM | IGROV-1 > 100 µM

c1ccc2sc(C3(N4CCCCC4)CCCC3)cc2c1
inactive: SK-MEL-5 10.9 µM | RXF 393 14.1 µM | OVCAR-3 8.69 µM | SW-620 8.02 µM | SN12C 13.5 µM | ACHN 8.65 µM | M14 15.1 µM | SF-539 16.1 µM | UACC-62 15.5 µM | MCF7 8.02 µM | SK-MEL-28 14.6 µM | COLO 205 5.53 µM | A549 5.43 µM | EKVX 7.14 µM | MDA-N 17.4 µM | IGROV-1 10.6 µM | HCC 2998 3.85 µM | RPMI-8226 2.38 µM | SNB-75 15.9 µM

Nc1ccc(S(=O)(=O)Nc2cnc3ccccc3n2)cc1 [SULFAQUINOXALINE]
inactive: SK-MEL-5 > 100 µM | RXF 393 > 100 µM | OVCAR-3 > 100 µM | SW-620 > 100 µM | SN12C > 100 µM | ACHN > 100 µM | M14 > 100 µM | SF-539 > 100 µM | UACC-62 > 100 µM | MDA-MB-231 > 100 µM | SK-MEL-28 > 100 µM | COLO 205 > 100 µM | A549 > 100 µM | EKVX > 100 µM | MDA-N > 100 µM | IGROV-1 > 96.6 µM | HCC 2998 > 100 µM | RPMI-8226 > 100 µM | SNB-75 26.7 µM

CSC1=Nc2ccccc2-c2nc(-c3ccccc3)cc(-c3ccccc3)c2C1
inactive: SK-MEL-5 16.6 µM | RXF 393 6.5 µM | SW-620 15.7 µM | SN12C 28.2 µM | ACHN 12.4 µM | M14 13.9 µM | SF-539 19.2 µM | UACC-62 9.77 µM | MDA-MB-231 14.2 µM | SK-MEL-28 35.6 µM | COLO 205 55 µM | A549 16 µM | EKVX 23.1 µM | MDA-N 26.5 µM | IGROV-1 10 µM | HCC 2998 41.6 µM | RPMI-8226 > 100 µM | SNB-75 4.26 µM

CCOC(=O)C(C)c1nc2c(Cl)c3ncccc3cc2[nH]c1=O (stereo not given)
inactive: SK-MEL-5 30.5 µM | RXF 393 62.8 µM | OVCAR-3 57.3 µM | SW-620 75.2 µM | SN12C > 100 µM | ACHN 22.6 µM | M14 44.8 µM | UACC-62 43.5 µM | MDA-MB-231 79.1 µM | SK-MEL-28 > 100 µM | COLO 205 > 100 µM | A549 53.2 µM | EKVX 31 µM | MDA-N > 100 µM | IGROV-1 62.2 µM | RPMI-8226 22.1 µM | SNB-75 62.2 µM
